The target in the test is T1, BRN2 (Homo sapiens, UniProt P20265).
T1 sequence (P20265 1-443): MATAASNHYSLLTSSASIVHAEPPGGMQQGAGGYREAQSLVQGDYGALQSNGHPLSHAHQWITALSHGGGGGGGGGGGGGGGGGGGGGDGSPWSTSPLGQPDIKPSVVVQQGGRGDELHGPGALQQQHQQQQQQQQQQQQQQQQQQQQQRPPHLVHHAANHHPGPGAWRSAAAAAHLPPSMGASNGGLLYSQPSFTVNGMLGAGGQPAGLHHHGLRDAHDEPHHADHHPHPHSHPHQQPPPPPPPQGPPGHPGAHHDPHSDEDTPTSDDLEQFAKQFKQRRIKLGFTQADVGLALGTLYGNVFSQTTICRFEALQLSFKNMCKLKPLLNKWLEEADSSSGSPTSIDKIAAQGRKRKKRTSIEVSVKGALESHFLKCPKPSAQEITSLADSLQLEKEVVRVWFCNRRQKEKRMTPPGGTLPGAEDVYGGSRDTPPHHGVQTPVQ
As to the kind of experiment: Drug Affinity Responsive Target Stability (DARTS) assay. It is filed as binding. The settings on record: 42D^ENZR cell lysate, yes/no direct interaction with BRN2. Further details: endogenous in cells; host or cells: 42D^ENZR cells. On the procedure: This in cell assay provides a yes/no answer to direct interaction between BRN2 inhibitor and protein. • i) Prepare and place the following on ice: • Pronase • TNC 10× • −500 mM Tris-HCl (pH 8.0) • −500 mM NaCl, 100 mM CaCl2 • DMSO • Drug • 10 mL NP40+Protease inhibitor+Phosphatase inhibitor solution (can store in 4° C. and use for up to 4 weeks): • −2 mL NP40 5× • −8 mL ddH2O • −1 PhosphoSTOP™ pill • −200 uL protease inhibitor 50×
2) Remove the growth medium from the cell plate (42D^ENZR) and add 10 mL of cold PBS/vanadate.
3) Scrape the cells. Remove the PBS-cell solution and add in a falcon tube.
4) Name a new 1.5 ml Eppendorf tube and put on ice to pre-chill.
5) Centrifuge the cells at 1500 for 5 minutes at 4° C. Remove supernatant and re-suspend the cells in 600 uL NP40 lysis buffer by pipetting up and down. If the cell pellet is small use less volume, for example 300 μl)
6) Transfer the lysing cells into the pre-chilled Eppendorf tube. Incubate on ice for 20 minutes. If not continuing the DARTS on the same day, you can put the lysate in −30 and work on it later.
7) Centrifuge the tube at maximum speed for 25-30 minutes at 4° C.
8) Discard the pellet (either transfer the supernatant in a new tube or just take out the pellet). […]
20) The samples are ready for Western blot gel running. […]

For `FC(F)(F)c1ccc2cc(-c3csc(-c4ccco4)n3)oc2c1` [VPC-18-51, 2-(Furan-2-yl)-4-(6-(trifluoromethyl)benzofuran-2-yl)thiazole], the DARTS binding result is listed as “binding”.
The same measure for `Clc1cc2cc(-c3csc(-c4ccc[nH]4)n3)oc2cc1Cl` [VPC-18-142]: “binding”.
